Measured values published in patent publication US8889826B2, “Peptide antibiotics and methods for making same” (priority 2004, dated 2014).

Assays:
[1] = system: Escherichia coli, ATCC #26; assay: MIC by serial twofold broth dilution, E. coli; format: cell-based; parameters: unit not given here; details: Mueller Hinton broth
Text: (§1) The antibacterial activities of certain new compounds are indicated in Table 4 as their minimum inhibitory concentrations (MICs) against Escherichia coli, Staphylococcus aureus, and Pseudomonas aeruginosa. MICs can be determined by the conditions disclosed in Table 4, as well as in Jarolmen, H. et al., “Activity of Minocycline Against R-Factor Carrying Enterobacteriaceae,” Infectious Immunity, Vol. 1, No. 4, pp. 321-326, 1970, the disclosure of which is incorporated herein by reference.

[2] = system: Staphylococcus aureus Smith; assay: MIC by serial twofold broth dilution, Staph; format: cell-based; parameters: unit not given here; details: Mueller Hinton broth
Text: as §1

[3] = system: Pseudomonas aeruginosa, ATCC 27853; assay: MIC by serial twofold broth dilution, Pseudo; format: cell-based; parameters: unit not given here; details: Mueller Hinton broth
Text: as §1

[4] = human, in vivo; cited from earlier work

Row | Substance | E. coli MIC [1] | Staph MIC [2] | Pseudo MIC [3] | neurotoxicity, overall incidence [4] [%]
1 | Colistin [reference compound] | 0.6 | >20 | 0.6 | 7.3
2 | Cyclohexylcarbamyl-[Ile^7]-Polymyxin Decapeptide [Compound 48] | 0.6 | – | 0.6 | –
3 | N-(n-Decanoyl)phenylalanyl-colistin decapeptide [Compound 52] | 1.25 | 2.5 | 2.5 | –
4 | P-Toluenesulfonyl-Colistin decapeptide [Compound 53] | 1.25 | >20 | 0.6 | –
5 | Polymyxin B1 [reference compound] | 0.6 | 10 | 0.6 | –
6 | Polymyxin B [reference compound] | 0.6 | >10 | 0.6 | –
7 | [Ile^7]-polymyxin B1 [reference compound] | 0.6 | 20 | 1.25 | –
8 | n-Octylcarbamyl-colistin decapeptide [Compound 51] | 1.25 | 20 | 0.6 | –
